From patent US20080287662A1, “Balanites Aegyptiaca Saponins and Uses Thereof” (priority 2005, published 2008)

Legend:
[1] = Penetration rate of 14C-labeled 2,4-D across isolated leaf cuticle membranes with saponin adjuvant; parameters: species or system Citrus grandis; details: 1% (w/v) adjuvant, 30° C. and 30% RH
[2] = test system: Aedes aegypti mosquito larvae; experiment: Effect of purified main mesocarp saponin on Aedes aegypti larvae, pupa and adults; assay type: in vivo
Experimental: Eggs of laboratory-grown Aedes aegypti were hatched in tap water in a growth chamber with a 16-hour photoperiod, at a temperature of 25±3° C. Twenty to twenty five larvae at the late 3rd and early 4th instars were placed into 150-ml disposable plastic cups containing 100 ml of tap water together with water-soluble saponin solutions of various concentrations. During the experiments, treated and control (0 mg/L saponin) cups were examined after 2, 4, 9 and 11 days and number of alive larvae or adults were counted. The data are presented in percentage together with an analysis of variance using the Tukey-Kramer HSD test (SAS's JMP software) at the 0.01 level of significance.

Pythium aphanidermatum = experiment: Mycelial colony growth inhibition in vitro; assay type: cell-based
Experimental: Cultures of Pythium aphanindermatum were isolated from plant species showing Pythium symptoms. The isolate was placed in potato dextrose agar (PDA, Difco, Detroit, Mich., USA) supplemented with 100 ppm of streptomycin and incubated in the dark at 27° C. for 2 days. The colony of Pythium was identified visually and microscopically and sub-cultured on PDA without antibiotics as described by Tsror et al (2001).
For fungal growth inhibition measurements five concentrations of Balanites mesocarp saponin (ME) preparation (0.1, 0.5, 1.0, 2.0 and 4.0% w/v) and two concentrations of Metalaxyl-10 (a systemic benzenoid fungicide, 1 and 5 ppm as positive control) were added in separate Erlenmeyer flasks containing sterilized (121° C., 2 atm, 20 min) PDA, and mixed properly. Samples of PDA containing Balanites mesocarp saponin preparation and Metalaxyl-10 (15 ml) were poured into sterilized petri dishes separately and allowed to solidify. 5 mm in diameter agar plug of the fungal isolate was placed in the center of each plate. The plates were incubated at 27° C. (10 plates per treatment). The colony diameter of the mycelial growth was measured after 24 and 48 h and the inhibitory activity of each treatment was expressed as the growth inhibition percentage as compared to the negative control (0% ME preparation) using the formula: Growth inhibition percentage=[100-(Treatment growth/Control growth*100)].

Escherichia coli = experiment: Bacterial growth in LB (OD660); assay type: cell-based
Experimental: Standard Luria Broth solution (LB) was prepared using […] yeast extract, 10 mg NaCl and 10 mg Typtone per ml of DDW. A small portion of the Escherichia coil inoculum (LMC1492 strain, obtained from the Life Sciences Department of the Ben-Gurion University) was added to the LB solution in a sterilized Erlenmeyer and inoculated in a rotary water bath incubator at 250 rpm and 37° C. The tested extracts were first prepared in 5% in LB solution and used as stock solution for further dilution. Lower concentrations were obtained by mixing this stock solution in the required ratios with plain LB solution. The extract containing solution of the required concentrations were prepared in 10/140 mm glass test tubes in volumes of 1.8 ml each and incubated in a rotary water bath incubator (Gyvotory-676, New Brunswick Scientific Co. Inc, NY) at 250 rpm and 37° C.

[3] = Vitamin C delivery through isolated rat skin; assay type: in vitro ADME; details: 25° C., 60% relative humidity
Experimental: The effect of Balanites mesocarp saponin preparation on delivery of vitamin C through the skin was tested using isolated rat skin system. 100 μl of saponin nanovesicles containing encapsulated vitamin C (2 mg) were prepared from saponin extracted from Balanites mesocarp by the procedure A described in Example 5(i) above. 15 μl of the preparation were loaded on an isolated rat skin in three replicates. The treatments were applied in a controlled environment (25° C. and 60% relative humidity) and incubated for 30 or 60 min. The solution delivered through the isolated skin was tested using an HPLC system for detecting the level of vitamin C corresponding to a standard peak of vitamin C.

[4] = test system: mung bean seeds and seedlings; experiment: Mung bean germination, growth and development under saline water irrigation; assay type: in vivo; parameters: key to Germination (4 days): ++++ more advanced seedling; typical germination using tap water +++ (1 cm height with two leave starting to be expended); ++ less advanced seedling; + not germinated seedling; key to Foliage (14 days): aaaa more elongated seedlings; Typical mung bean foliage development 14 days after germination using tap water aaa (~10 cm seedling with fully expanded two leave and abscised cotyledons); aa less elongated seedlings; a dwarf seedling; key to Root: bbbb more elongated and branched roots; Typical mung bean root system 14 days after germination using tap water bbb (~6 cm well branched roots); bb less elongated roots; b short and necrotic root system; details: for Root: 14 days after germination
Experimental: Addition of Balanites mesocarp extract (ME) saponins in moderate concentration of […] to the irrigation saline water stimulated the germination and development of mung bean seeds in comparison to control. It also stimulated the germination of the seeds in comparison to control and to saline treatments. The effect on the foliage and the roots of the treated mung bean seedlings corresponded to the effect on the germination. These effects are directly related to the effect of Balanites mesocarp saponin treatment on water uptake by the mung bean seeds and germinated seedlings.

Triton X-100
Factor increase (times) of penetration rate vs DDW [1]: 18.6 times | Penetration rate of 2,4-D (^14C) [1]: 11.00 × 10^−5 a h^−1 | Factor increase (times) of penetration rate vs DDW ([1]; listed as Triton): 19.1 times | Penetration rate of 2,4-D (^14C) ([1]; listed as Triton): 0.00011 h⁻¹

CC(CCC1(O)O[C@H]2C[C@H]3[C@@H]4CC=C5C[C@@H](O[C@@H]6O[C@H](CO)[C@@H](O[C@@H]7O[C@H](CO)[C@@H](O)[C@H](O)[C@H]7O)[C@H](O)[C@H]6O[C@@H]6O[C@@H](C)[C@H](O)[C@@H](O)[C@H]6O)CC[C@]5(C)[C@H]4CC[C@]3(C)[C@H]2[C@@H]1C)CO[C@@H]1O[C@H](CO)[C@@H](O)[C@H](O)[C@H]1O (stereo partly drawn) [26-(O-β-D-glucopyranosyl)-3β,22,26-trihydroxyfurost-5-ene 3-O-β-D-glucopyranosyl-(1→4)-[α-L-rhamnopyranosyl-(1→2)]-β-D-glucopyranoside]
% adults ([2]; 10 ppm, day 0): 0% | % dead larvae ([2]; 10 ppm, day 0): 0% | % pupa ([2]; 10 ppm, day 0): 0% | % adults ([2]; 10 ppm, day 2): 0% | % dead larvae ([2]; 10 ppm, day 2): 0 d % | % pupa ([2]; 10 ppm, day 2): 0% | % adults ([2]; 10 ppm, day 4): 0% | % dead larvae ([2]; 10 ppm, day 4): 0 d % | % pupa ([2]; 10 ppm, day 4): 41 ab % | % adults ([2]; 10 ppm, day 9): 41 bc % | % dead larvae ([2]; 10 ppm, day 9): 0 d % | % pupa ([2]; 10 ppm, day 9): 0 b % | % adults ([2]; 10 ppm, day 11): 87 a % | % dead larvae ([2]; 10 ppm, day 11): 1.25 d % | % pupa ([2]; 10 ppm, day 11): 0% | % adults ([2]; 100 ppm, day 0): 0% | % dead larvae ([2]; 100 ppm, day 0): 0% | % pupa ([2]; 100 ppm, day 0): 0% | % adults ([2]; 100 ppm, day 2): 0% | % dead larvae ([2]; 100 ppm, day 2): 0 d % | % pupa ([2]; 100 ppm, day 2): 0% | % adults ([2]; 100 ppm, day 4): 0% | % dead larvae ([2]; 100 ppm, day 4): 0 d % | % pupa ([2]; 100 ppm, day 4): 45 a % | % adults ([2]; 100 ppm, day 9): 70 a % | % dead larvae ([2]; 100 ppm, day 9): 6.25 d % | % pupa ([2]; 100 ppm, day 9): 0 b % | % adults ([2]; 100 ppm, day 11): 85 a % | % dead larvae ([2]; 100 ppm, day 11): 6.25 cd % | % pupa ([2]; 100 ppm, day 11): 0% | % adults ([2]; 300 ppm, day 0): 0% | % dead larvae ([2]; 300 ppm, day 0): 0% | % pupa ([2]; 300 ppm, day 0): 0% | % adults ([2]; 300 ppm, day 2): 0% | % dead larvae ([2]; 300 ppm, day 2): 50 c % | % pupa ([2]; 300 ppm, day 2): 0% | % adults ([2]; 300 ppm, day 4): 0% | % dead larvae ([2]; 300 ppm, day 4): 50 c % | % pupa ([2]; 300 ppm, day 4): 15 bc % | % adults ([2]; 300 ppm, day 9): 15 d % | % dead larvae ([2]; 300 ppm, day 9): 50 c % | % pupa ([2]; 300 ppm, day 9): 33.25 a % | % adults ([2]; 300 ppm, day 11): 50 b % | % dead larvae ([2]; 300 ppm, day 11): 48.75 bc % | % pupa ([2]; 300 ppm, day 11): 0% | % adults ([2]; 500 ppm, day 0): 0% | % dead larvae ([2]; 500 ppm, day 0): 0% | % pupa ([2]; 500 ppm, day 0): 0% | % adults ([2]; 500 ppm, day 2): 0% | % dead larvae ([2]; 500 ppm, day 2): 77.5 b % | % pupa ([2]; 500 ppm, day 2): 0% | % adults ([2]; 500 ppm, day 4): 0% | % dead larvae ([2]; 500 ppm, day 4): 78.75 b % | % pupa ([2]; 500 ppm, day 4): 9.5 c % | % adults ([2]; 500 ppm, day 9): 20 cd % | % dead larvae ([2]; 500 ppm, day 9): 78.25 b % | % pupa ([2]; 500 ppm, day 9): 1.75 b % | % adults ([2]; 500 ppm, day 11): 22.5 c % | % dead larvae ([2]; 500 ppm, day 11): 78.25 ab % | % pupa ([2]; 500 ppm, day 11): 0% | % adults ([2]; 800 ppm, day 0): 0% | % dead larvae ([2]; 800 ppm, day 0): 0% | % pupa ([2]; 800 ppm, day 0): 0% | % adults ([2]; 800 ppm, day 2): 0% | % dead larvae ([2]; 800 ppm, day 2): 95 a % | % pupa ([2]; 800 ppm, day 2): 0% | % adults ([2]; 800 ppm, day 4): 0% | % dead larvae ([2]; 800 ppm, day 4): 95 a % | % pupa ([2]; 800 ppm, day 4): 1.75 c % | % adults ([2]; 800 ppm, day 9): 0 d % | % dead larvae ([2]; 800 ppm, day 9): 93.75 a % | % pupa ([2]; 800 ppm, day 9): 0 b % | % adults ([2]; 800 ppm, day 11): 5 c % | % dead larvae ([2]; 800 ppm, day 11): 94.25 a % | % pupa ([2]; 800 ppm, day 11): 0% | % adults ([2]; 1000 ppm, day 0): 0% | % dead larvae ([2]; 1000 ppm, day 0): 0% | % pupa ([2]; 1000 ppm, day 0): 0% | % adults ([2]; 1000 ppm, day 2): 0% | % dead larvae ([2]; 1000 ppm, day 2): 90 a % | % pupa ([2]; 1000 ppm, day 2): 0% | % adults ([2]; 1000 ppm, day 4): 0% | % dead larvae ([2]; 1000 ppm, day 4): 94 a % | % pupa ([2]; 1000 ppm, day 4): 3.75 c % | % adults ([2]; 1000 ppm, day 9): 3.75 d % | % dead larvae ([2]; 1000 ppm, day 9): 93.75 a % | % pupa ([2]; 1000 ppm, day 9): 0 b % | % adults ([2]; 1000 ppm, day 11): 3.75 c % | % dead larvae ([2]; 1000 ppm, day 11): 96.25 a % | % pupa ([2]; 1000 ppm, day 11): 0% | % Growth inhibition (Pythium aphanidermatum; 0.1% w/v, 24 h): 4.29 ± 1.50 d % | % Growth inhibition (Pythium aphanidermatum; 0.1% w/v, 48 h): 1.00 ± 0.01 e % | % Growth inhibition (Pythium aphanidermatum; 0.5% w/v, 24 h): 13.96 ± 3.21 d % | % Growth inhibition (Pythium aphanidermatum; 0.5% w/v, 48 h): 5.35 ± 1.32 e % | % Growth inhibition (Pythium aphanidermatum; 1.0% w/v, 24 h): 66.39 ± 3.52 c % | % Growth inhibition (Pythium aphanidermatum; 1.0% w/v, 48 h): 26.01 ± 2.95 c % | % Growth inhibition (Pythium aphanidermatum; 2.0% w/v, 24 h): 81.96 ± 1.30 b % | % Growth inhibition (Pythium aphanidermatum; 2.0% w/v, 48 h): 70.87 ± 2.57 b % | % Growth inhibition (Pythium aphanidermatum; 4.0% w/v, 24 h): 82.47 ± 1.30 b % | % Growth inhibition (Pythium aphanidermatum; 4.0% w/v, 48 h): 80.01 ± 0.42 b % | growth inhibition (Escherichia coli; 1.0% (w/v)): 33.3% | concentration up to which bacterial growth was increased (Escherichia coli; series 0.01-1.0% w/v): 0.5 % (w/v)

O=C1O[C@H]([C@@H](O)CO)C(O)=C1O [Vitamin C, ascorbic acid]
Vitamin C level in skin ([3]; 30 minutes incubation): 259 ± 109 ng/cm^2 skin surface area | Vitamin C level in skin ([3]; 60 minutes incubation): 326 ± 131 ng/cm^2 skin surface area

[Cl-].[Na+] [NaCl]
Foliage (14 days) ([4]; 75 mM): aa | Germination (4 days) ([4]; 75 mM): ++ | Root ([4]; 75 mM): bbb | Foliage (14 days) ([4]; 150 mM): a | Germination (4 days) ([4]; 150 mM): + | Root ([4]; 150 mM): bb
